Source: BindingDB's records for doi:10.1021/jm00356a028 (1983)

experiment: Inhibition of HSV-1 DNA polymerase in HSV-1 C42 plaque reduction assay

**Q.** For `COP(=O)(OC)C(=O)Oc1ccc(Cl)c(Cl)c1` [3,4-dichlorophenyl dimethoxyphosphinecarboxylate oxide], which IC50 is on record?
**A.** The IC50 was > 500 µM.

**Q.** With `CCOP(=O)(Oc1c(C)cccc1C)C(=O)OC` (stereo not given) [methyl (2,6-dimethylphenoxy)(ethoxy)phosphinecarboxylate oxide] as the compound, how does the IC50 read?
**A.** Its IC50 is > 500 µM.

**Q.** Which IC50 does the source give for `CC(C)OC(=O)P(=O)(O)O` [disodium isopropoxycarbonylphosphonate] here?
**A.** The IC50 was > 500 µM.

**Q.** With `CCOC(=O)c1ccc(OC(=O)P(=O)(OC)OC)cc1` [4-(ethoxycarbonyl)phenyl dimethoxyphosphinecarboxylate oxide] as the compound, how does the IC50 read?
**A.** Its IC50 is > 500 µM.

**Q.** Which IC50 does the source give for `O=C(OCC1CCCC1)P(=O)(O)O` [disodium (cyclopentylmethoxy)carbonylphosphonate] here?
**A.** Its IC50 is > 500 µM.

**Q.** Which IC50 does the source give for `COP(=O)(OC)C(=O)Oc1ccc(C)cc1` [4-methylphenyl dimethoxyphosphinecarboxylate oxide] here?
**A.** The IC50 was > 500 µM.

**Q.** Which IC50 does the source give for `COP(=O)(OC)C(=O)OC(C)C` [isopropyl dimethoxyphosphinecarboxylate oxide] here?
**A.** The IC50 was > 500 µM.

**Q.** Which IC50 does the source give for `O=C(Oc1ccc(Cl)cc1)P(=O)(O)O` [disodium (4-chlorophenoxy)carbonylphosphonate] here?
**A.** Its IC50 is 250 µM.

**Q.** With `COC(=O)P(=O)(OC)OC12CC3CC(CC(C3)C1)C2` (stereo not given) [methyl (1-adamantyloxy)(methoxy)phosphinecarboxylate oxide] as the compound, how does the IC50 read?
**A.** Its IC50 is > 500 µM.

**Q.** Which IC50 does the source give for `O=C(Oc1ccccc1)P(=O)(Oc1ccccc1)Oc1ccccc1` [phenyl diphenoxyphosphinecarboxylate oxide] here?
**A.** Its IC50 is 39 µM.

**Q.** For `CCOC(=O)P(=O)(O)OCC` [sodium ethyl ethoxycarbonylphosphonate], which IC50 is on record?
**A.** The IC50 was > 500 µM.

**Q.** For `COP(=O)(OC)C(=O)OCc1ccccc1` [benzyl dimethoxyphosphinecarboxylate oxide], which IC50 is on record?
**A.** The IC50 was > 500 µM.

**Q.** For `COP(=O)(O)C(=O)OCc1ccccc1` [sodium methyl (benzyloxy)carbonylphosphonate], which IC50 is on record?
**A.** Its IC50 is > 500 µM.

**Q.** For `CCOC(=O)P(=O)(O)Oc1ccccc1` [sodium phenyl ethoxycarbonylphosphonate], which IC50 is on record?
**A.** Its IC50 is > 500 µM.

**Q.** Which IC50 does the source give for `COC(=O)P(=O)(OC)Oc1ccc(C(C)=O)cc1` (stereo not given) [methyl (4-acetylphenoxy)(methoxy)phosphinecarboxylate oxide] here?
**A.** Its IC50 is > 500 µM.

**Q.** For `Cc1ccc(OP(=O)(O)C(=O)O)cc1` [disodium (4-methylphenoxy)(oxido)phosphinecarboxylate oxide], which IC50 is on record?
**A.** The IC50 was 87 µM.

**Q.** For `Cc1ccc(OP(=O)(O)C(=O)Oc2ccccc2)cc1` [sodium 4-methylphenyl phenoxycarbonylphosphonate], which IC50 is on record?
**A.** Its IC50 is 54 µM.

**Q.** With `CCOC(=O)P(=O)(O)O` [disodium ethoxycarbonylphosphonate] as the compound, how does the IC50 read?
**A.** The IC50 was > 500 µM.

**Q.** For `CCOP(=O)(OCC)C(=O)Oc1ccc(OC)cc1` [4-methoxyphenyl diethoxyphosphinecarboxylate oxide], which IC50 is on record?
**A.** Its IC50 is > 500 µM.

**Q.** Which IC50 does the source give for `O=C(OC1CCCCC1)P(=O)(O)O` [disodium (cyclohexyloxy)carbonylphosphonate] here?
**A.** Its IC50 is > 500 µM.

**Q.** With `CCOP(=O)(Oc1ccc2c(c1)CCC2)C(=O)OC` (stereo not given) [methyl (2,3-dihydro-1H-inden-5-yloxy)(ethoxy)phosphinecarboxylate oxide] as the compound, how does the IC50 read?
**A.** Its IC50 is > 500 µM.

**Q.** With `CCOP(=O)(O)C(=O)Oc1ccc(OC)cc1` [sodium ethyl (4-methoxyphenoxy)carbonylphosphonate] as the compound, how does the IC50 read?
**A.** Its IC50 is 165 µM.

**Q.** With `CCCCOP(=O)(OCCCC)C(=O)OC` [methyl dibutoxyphosphinecarboxylate oxide] as the compound, how does the IC50 read?
**A.** Its IC50 is > 500 µM.

**Q.** Which IC50 does the source give for `O=C(O)P(=O)(O)OC12CC3CC(CC(C3)C1)C2` [disodium (1-adamantyloxy)(oxido)phosphinecarboxylate oxide] here?
**A.** Its IC50 is > 500 µM.

**Q.** With `COP(=O)(OC)C(=O)Oc1ccccc1` [phenyl dimethoxyphosphinecarboxylate oxide] as the compound, how does the IC50 read?
**A.** The IC50 was > 500 µM.

**Q.** Which IC50 does the source give for `Cc1ccc(OP(=O)(Oc2ccc(C)cc2)C(=O)Oc2ccccc2)cc1` [phenyl bis(4-methylphenoxy)phosphinecarboxylate oxide] here?
**A.** Its IC50 is 44 µM.

**Q.** For `O=C(OCc1ccccc1)P(=O)(O)O` [disodium (benzyloxy)carbonylphosphonate], which IC50 is on record?
**A.** Its IC50 is > 500 µM.

**Q.** With `O=C(O)P(=O)(O)Oc1ccc2c(c1)CCC2` [disodium (2,3-dihydro-1H-inden-5-yloxy)(oxido)phosphinecarboxylate oxide] as the compound, how does the IC50 read?
**A.** Its IC50 is 73 µM.

**Q.** For `COP(=O)(OC)C(=O)Oc1ccc([N+](=O)[O-])cc1` [4-nitrophenyl dimethoxyphosphinecarboxylate oxide], which IC50 is on record?
**A.** Its IC50 is > 500 µM.

**Q.** With `O=C(O)P(=O)(O)Oc1ccccc1` [disodium oxido(phenoxy)phosphinecarboxylate oxide] as the compound, how does the IC50 read?
**A.** The IC50 was 79 µM.

**Q.** With `COP(=O)(OC)C(=O)OC1CCCCC1` [cyclohexyl dimethoxyphosphinecarboxylate oxide] as the compound, how does the IC50 read?
**A.** The IC50 was > 500 µM.

**Q.** For `COP(=O)(O)C(=O)O` [disodium methoxy(oxido)phosphinecarboxylate oxide], which IC50 is on record?
**A.** Its IC50 is > 500 µM.

**Q.** For `CCOP(=O)(O)C(=O)O` [disodium ethoxy(oxido)phosphinecarboxylate oxide], which IC50 is on record?
**A.** Its IC50 is > 500 µM.

**Q.** Which IC50 does the source give for `O=C(Oc1ccccc1)P(=O)(O)O` [disodium phenoxycarbonylphosphonate] here?
**A.** Its IC50 is > 500 µM.

**Q.** Which IC50 does the source give for `CCOP(=O)(Oc1ccc(C(C)=O)cc1)C(=O)OC` (stereo not given) [methyl (4-acetylphenoxy)(ethoxy)phosphinecarboxylate oxide] here?
**A.** The IC50 was > 500 µM.

**Q.** Which IC50 does the source give for `COc1ccc(OC(=O)P(=O)(O)O)cc1` [disodium (4-methoxyphenoxy)carbonylphosphonate] here?
**A.** The IC50 was > 500 µM.

**Q.** Which IC50 does the source give for `O=C(Oc1ccccc1)P(=O)(O)Oc1ccccc1` [sodium phenyl phenoxycarbonylphosphonate] here?
**A.** The IC50 was 52 µM.

**Q.** Which IC50 does the source give for `CCOC(=O)c1ccc(OC(=O)P(=O)(O)O)cc1` [disodium [4-(ethoxycarbonyl)phenoxy]carbonylphosphonate] here?
**A.** The IC50 was > 500 µM.

**Q.** Which IC50 does the source give for `Cc1cccc(C)c1OP(=O)(O)C(=O)O` [disodium (2,6-dimethylphenoxy)(oxido)phosphinecarboxylate oxide] here?
**A.** Its IC50 is > 500 µM.

**Q.** Which IC50 does the source give for `CCCCOC(=O)P(=O)(OC)OC` [butyl dimethoxyphosphinecarboxylate oxide] here?
**A.** Its IC50 is > 500 µM.

**Q.** For `COP(=O)(OC)C(=O)OCC1CCCC1` [cyclopentylmethyl dimethoxyphosphinecarboxylate oxide], which IC50 is on record?
**A.** Its IC50 is > 500 µM.

**Q.** With `COC(=O)P(=O)(OC(C)C)OC(C)C` [methyl diisopropoxyphosphinecarboxylate oxide] as the compound, how does the IC50 read?
**A.** Its IC50 is > 500 µM.

**Q.** With `COc1ccc(OP(=O)(O)C(=O)O)cc1` [disodium (4-methoxyphenoxy)(oxido)phosphinecarboxylate oxide] as the compound, how does the IC50 read?
**A.** Its IC50 is 90 µM.

**Q.** With `CCCCOC(=O)P(=O)(O)O` [disodium butoxycarbonylphosphonate] as the compound, how does the IC50 read?
**A.** Its IC50 is > 500 µM.

**Q.** For `COP(=O)(O)C(=O)Oc1ccccc1` [sodium methyl phenoxycarbonylphosphonate], which IC50 is on record?
**A.** Its IC50 is > 500 µM.

**Q.** Which IC50 does the source give for `CCOP(=O)(Oc1ccc(OC)cc1)C(=O)Oc1ccccc1` (stereo not given) [phenyl (4-methoxyphenoxy)(ethoxy)phosphinecarboxylate oxide] here?
**A.** The IC50 was 97 µM.

**Q.** With `COC(=O)P(=O)(O)Oc1ccc2c(c1)CCC2` [sodium 2,3-dihydro-1H-inden-5-yl methoxycarbonylphosphonate] as the compound, how does the IC50 read?
**A.** Its IC50 is > 500 µM.

**Q.** For `CCOP(=O)(OCC)C(=O)Oc1ccc(Cl)cc1` [4-chlorophenyl diethoxyphosphinecarboxylate oxide], which IC50 is on record?
**A.** Its IC50 is > 500 µM.

**Q.** For `O=C(O)P(=O)(O)O`, which IC50 is on record?
**A.** The IC50 was 74 µM.

**Q.** For `CCCCOP(=O)(O)C(=O)OC` [sodium butyl methoxycarbonylphosphonate], which IC50 is on record?
**A.** The IC50 was > 500 µM.

**Q.** For `COC(=O)P(=O)(O)Oc1c(C)cccc1C` [sodium 2,6-dimethylphenyl methoxycarbonylphosphonate], which IC50 is on record?
**A.** The IC50 was > 500 µM.

**Q.** Which IC50 does the source give for `CC(C)OP(=O)(OC(C)C)C(=O)Oc1ccc([N+](=O)[O-])cc1` [4-nitrophenyl diisopropoxyphosphinecarboxylate oxide] here?
**A.** The IC50 was > 500 µM.

**Q.** With `Cc1ccc(OC(=O)P(=O)(O)O)cc1` [disodium (4-methylphenoxy)carbonylphosphonate] as the compound, how does the IC50 read?
**A.** Its IC50 is > 500 µM.

**Q.** Which IC50 does the source give for `CCOC(=O)c1ccc(OC(=O)P(=O)(OCC)OCC)cc1` [4-(ethoxycarbonyl)phenyl diethoxyphosphinecarboxylate oxide] here?
**A.** Its IC50 is > 500 µM.

**Q.** Which IC50 does the source give for `CCOP(=O)(O)C(=O)Oc1ccc(Cl)cc1` [sodium ethyl (4-chlorophenoxy)carbonylphosphonate] here?
**A.** Its IC50 is 500 µM.
